According to paper PMC8400257, “2-Phenoxy-3-Trichloromethylquinoxalines Are Antiplasmodial Derivatives with Activity against the Apicoplast of Plasmodium falciparum” (Pharmaceuticals, 2021):
Entries after “also recorded” stand apart in the source; their conditions may differ.

Experiments:
[1] = tested on: Plasmodium falciparum blood stage parasites; test: Growth assay over three life cycles (delayed death); assay type: cell-based; conditions: 0.2 µM; 48, 96, 144 h
Method: To determine the impact of (3i) on apicoplast biogenesis, parasites were treated for 48 h with 0.2 µM of (3i) or 0.2 µM of (2i) (a control of (3i) for which the active CCl3 was replaced by a methyl CH3 group) and compared to untreated parasites by immunofluorescence assay. […] In order to determine if the apicoplast is the main target of (3i), we performed a growth assay over three life cycles to assess a potential delayed death effect, one of the major signature for compounds affecting apicoplast. […] The second interpretation could be that, unlike chloramphenicol or doxycycline, which cause a delayed death phenotype on Plasmodium, (3i) could act like fosmidomycin or actinonin and cause a rapid death phenotype.
To observe a potential effect of delayed death of the molecule on the parasite, Plasmodium was maintained on three life cycles (48 h). […] Fluorescence from each well was measured with TECAN infinite M200 plate reader (excitation: 485 nm, emission: 538 nm and integration time: 1000 μs). […] A graph was obtained by performing the ration of the treated culture fluorescence intensity on the untreated culture fluorescence intensity (n = 3).

HepG2 cell line = test: In vitro alkaline comet assay; assay type: cell-based, human
Method: The human hepatocarcinoma cell line HepG2 was obtained from the American Type Culture Collection (ATCC, ref. HB-8065). Cells were cultured in Eagle’s minimum essential medium (EMEM, ref. ATCC®® 30-2003TM) and supplemented with 10% heat-inactivated foetal bovine serum, 100 U/mL penicillin, and 0.1 mg/mL streptomycin (all from Gibco). Cells were maintained at 37 °C in a humidified atmosphere with 5% CO2 and used in passage number 11 to 15. Two concentrations of the compound 3i (3.2 and 16 µM) were tested at 2 different times of incubation (2 and 72 h). Briefly, HepG2 cells were seeded at 1.13 × 10^5 cells/mL in 6-well plates (3 mL of cell suspension per well) and incubated at 37 °C in a humidified atmosphere with 5% CO2. After 24 and 94 h of incubation, cells were treated with different concentrations of the compound or the vehicle (0.5% dimethylsulfoxide, DMSO) for 72 and 2 h, respectively. Additionally, in the 2 h treatment plate, cells in an additional well were treated with 1 mM MMS as positive control for the comet assay. After treatment, medium was removed from the wells and cells were washed with phosphate buffered saline (PBS). Finally, cells were trypsinized and trypsin was neutralized with fresh medium. From this point, cells were kept ice-cold to avoid DNA repair.
The standard alkaline comet assay was employed for the detection of DNA strand breaks (SBs) and alkali-labile sites (ALS) in cells treated with molecule 3i. Trypsinized HepG2 cells were centrifuged at 125 × g for 5 min at 4 °C and resuspended in cold PBS at 1 x 10^6 cells/mL. For the preparation of the agarose gels, 30 µL of cell suspension were mixed with 140 µL of 1% low melting point agarose in PBS at 37 °C and 2 aliquots of 70 µL of cell/agarose mixture were placed on agarose-precoated microscope slides. Each droplet was covered with a 20 × 20 mm coverslip and, after 2–3 min on a cold metal plate, the coverslips were removed. Then, slides were immersed in lysis solution (2.5 M NaCl, 0.1 M Na2EDTA, 0.01 M Tris base, pH 10, and 1% Triton X-100) at 4 °C for 1 h. After lysis, slides were transferred to the electrophoresis tank and incubated for 40 min at 4 °C in the electrophoresis solution (0.3 M NaOH, 1 mM Na2EDTA, pH > 13) to allow DNA unwinding. After that, electrophoresis was carried out at 1 V/cm for 20 min (4 °C). Then, gels were neutralized and washed by immersing the slides in PBS for 10 min and distilled water for another 10 min (both at 4 °C). Gels were then air-dried at room temperature. Comets were stained by adding 30 µL of […] of 4,6- diamidino-2-phenylindole (DAPI) on top of each gel and placing 22 × 22 mm coverslips on top. Slides were incubated with DAPI at room temperature for 30 min before the analysis. The semi-automated image analysis system Comet Assay IV (Instem, Stone, UK) was used to evaluate 50 comets per gel (i.e., 100 comets/condition). The percentage of DNA in tail was the descriptor used for each comet.
The median percentage of DNA in tail for 50 comets was calculated for each of the duplicate gels in each experiment, and the mean of the two medians were then calculated. The mean percentage of DNA in tail of 3 independent experiments and the standard deviation (SD) were calculated.

[2] = In vitro cytotoxicity evaluation HepG2 (MTT); assay type: cell-based, human; conditions: human, CC50 HepG2 (µM) ± SD
Method: For all molecules, the selectivity index was calculated as following SI = CC50/EC50.
Triplicate assays were performed for each sample. Each plate-well was then microscopically examined for possible precipitate formation before the medium was aspirated from the wells. Next, 100 µL of MTT (3-(4,5-dimethyl-2-thiazolyl)-2,5-diphenyl -2H-tetrazolium bromide) solution (0.5 mg/mL in medium without FBS) was added to each well. […] After this time, the MTT solution was removed and DMSO (100 μL) was added to dissolve the resulting blue formazan crystals. Plates were shaken vigorously (700 rpm) for 10 min. The absorbance was measured at 570 nm with 630 nm as reference wavelength using a BIO-TEK ELx808 Absorbance Microplate Reader (LabX, Midland, ON, Canada). DMSO was used as blank and doxorubicin (purchased from Sigma Aldrich) as positive control. Cell viability was calculated as a percentage of control (cells incubated without compound). […] CC50 values to represent the mean value calculated from three independent experiments.

O=[N+]([O-])c1ccc(Oc2nc3ccccc3nc2C(Cl)(Cl)Cl)cc1 [3i, 2-(4-Nitrophenoxy)-3-trichloromethylquinoxaline]
Parasite growth over three life cycles (ratio treated/untreated) [1]: drastic reduction in the parasite growth within the first life cycle
In vitro comet assay: DNA strand breaks or alkali labile sites (genotoxicity) (HepG2 cell line; HepG2, 3.2 and 16 µM, short (2 h) or long (72 h) exposition): not genotoxic; also recorded: did not induce DNA strand breaks or alkali labile sites
In vitro comet assay result (HepG2 cell line; HepG2, 2 h, 3.2 µM): negative
In vitro comet assay result (HepG2 cell line; HepG2, 2 h, 16 µM): negative
In vitro comet assay result (HepG2 cell line; HepG2, 72 h, 3.2 µM): negative
In vitro comet assay result (HepG2 cell line; HepG2, 72 h, 16 µM): negative
CC50 at 72 h [2]: 32 ± 6.1 µM
